Marks after values point to notes of the source that are not given here. Square brackets hold non-standard residues; d marks the D form. Peptide text beside a SMILES is read from it. * marks the point of attachment. Sta = CC(C)C[C@H](N)[C@@H](O)CC(=O)O; Isovaleryl = CC(C)CC(=O)*
Key:
[1] = test system: Escherichia coli Nissle 1917 (EcN); assay: Prebiotic index of EcN (CFU on sample vs CFU on glucose); format: cell-based; settings: 2 mg/mL, 24 h, ratio to growth on 2 mg/mL glucose
Protocol: (§1) Escherichia coli K12 (K12) was chosen as a representative enteric species, and E. coli Nissle 1917 (EcN) was chosen as a representative probiotic strain. Both strains were obtained from the bacterial strain collection in Food Microbiology Laboratory (Dairy department, Faculty of Agriculture, Mansoura University, Egypt). An overnight culture of both strains was activated in nutrient broth (NB) (BD Difco™, Bacton, Dickinson and Company Sparks, MD, USA) at 37 °C for 16–18 h. The culture was diluted on test days in buffered peptone water to a final concentration of 1.5 × 10^8 colony forming units (CFU)/mL cell counts were assessed by pour plate method, one mL of a suitable dilution was incubated on nutrient agar at 37 °C for 24 h. colonies were then counted and converted to CFU/mL ([Dawood et al., 2021]).
Prebiotic index (PI) was estimated as previously described ([Dawood et al., 2021]). E. coli Nissle 1917 was used as the representative probiotic strain. Aliquots containing 10^7 CFU of an overnight culture of EcN were inoculated into separate tubes containing NB. Two mg/mL of extracts or isolated phenolic compounds or 2 mg/mL of glucose as a positive control was added, and growth of EcN was assessed as the number of viable colonies forming units (CFU)/mL after incubation for 24 h using the pour method on nutrient agar, followed by incubation at 37 °C for 24 h. PI is the ratio of growth of EcN in NB supplemented with individual compounds or extracts to growth on glucose. A PI greater than one indicates a positive influence on the growth of EcN. PI was calculated as follows:(1) PI=CFUofEcNinPhenolicCompounds(asprebiotic)/CFUofECNinglucose(ascontrolcarbohydrate)

[2] = test system: Escherichia coli Nissle 1917 (EcN); assay: Growth kinetic curves of Escherichia coli Nissle 1917 (OD600, DMFit); format: cell-based; settings: for Effect on lag phase of EcN compared with control: 2 mg/mL, in words
Protocol: as §1
An aliquot (100 µL) of EcN was inoculated into NB (BD Difco ^TM) and incubated at 37 °C for 24 h. An overnight culture of EcN was further streaked onto nutrient agar and incubated for 48 h at 37 °C. The EcN culture was diluted in sterile saline solution (0.85%) on the day of assay to adjust the final cell count to 1.5 × 10^8 CFU/mL. Bacterial growth was determined in NB supplemented with individual pure compounds (1–8) or extracts (methanol, petroleum ether, and ethyl acetate) at 2 mg/mL. Growth kinetics of EcN were monitored spectrophotometrically by OD600 every of 60 min at 37 °C ([Pacheco-Ordaz et al., 2018]). DMFit ver. 2.1 an Excel add-in was used to determine: doubling time (Td), lag time, maximum growth at the stationary phase (Y max, OD), and specific growth rate (µmax, OD).

[3] = molecular target: angiotensin-converting enzyme (ACE) (Homo sapiens, UniProt P12821); assay: Angiotensin-converting enzyme inhibitory activity (HHL cleavage, 228 nm); format: biochemical; settings: whey of yogurt enriched at 2 mg/mL, after 7 days of refrigerated storage; in words
Protocol: Lyophilized aqueous extract (whey) obtained from yogurt enriched with extracts or individual compounds at 2 mg/mL was used. […] The method depends on hipuryl-histdylleucine (HHL) cleavage to hippuric acid by ACE. HHL (3.8 mM) was diluted in 0.1 M borate buffer (200 μL; pH 8.3), including 0.3 M NaCl, then 35 μL of sample solution (2 mg/mL) was added, and the mixture incubated for 10 min at 37 °C. The reaction was initiated by adding 20 μL of ACE solution (0.1 U/mL in borate buffer) and allowed to proceed for 30 min at 37 °C. HCl (250 μL of a 1 M solution) was then added to stop the reaction. […] Subsequently, 1 mL of supernatant (ethyl acetate) was collected in a new tube and placed in boiling water for 30 min to eliminate the solvent. The remaining hippuric acid residue was dissolved in 1 mL of distilled water, and absorbance was measured at 228 nm using distilled water as a blank. All samples were analyzed in triplicate. Captopril (0.008 mg/mL) was used as a positive control, and lyophilized aqueous extract (whey) obtained from plain yogurt was used as a negative control. The calculation of ACE inhibitory activity was determined as follows:(3) ACE inhibition%=[1-(A-C)/(B-D)]×100 where A is absorbance with the sample, HHL, and ACE; B is absorbance with HHL and ACE without sample; C is absorbance with sample and HHL; D is absorbance with HHL without sample and ACE.

[4] = test system: E. coli Nissle 1917 (EcN) versus Escherichia coli K12; assay: Prebiotic activity score (EcN growth relative to enteric E. coli K12, vs glucose); format: cell-based; settings: EcN vs E. coli K12, 24 h at 37 °C
Protocol: as §1
Log E is log of CFU/mL of K12 at zero time (E0) and 24 h (E24) of culture on glucose and pure compounds. Individual pure compounds or extracts that induce a high value of Pscore improve EcN growth compared with the growth rate of EcN on glucose. Support of K12 growth by pure compounds or extracts theoretically should be low compared to growth of K12 on glucose.

pepsin = pepsin (Homo sapiens, UniProt P0DJD8); assay: Protease (pepsin) inhibition with bovine serum albumin substrate; format: biochemical; settings: samples at 2 mg/mL; Pepstatin A 0.5 µg/mL positive control; in words
Protocol: Protease used the protocol of [Hu et al. (2013]). Briefly, 100 µL of pepsin solution (1 mg pepsin/1 mL of 0.02 N HCl) was mixed with 0.5 mL of 10 mg/mL bovine serum albumin and 0.5 mL of extracts or pure compounds (2 mg/mL) and incubated for 30 min at 37 °C. TCA (0.9 mL 5%) was added to stop the reaction, followed by centrifugation (4800g, 15 min). Protein concentration in the final supernatant was determined using Coomassie (Bradford) protein assay kits. Pepstatin A (0. 5 µg/mL) was used as a positive control.

α-amylase = α-amylase inhibition (starch, dinitrosalicylic acid, 540 nm); format: biochemical; settings: samples at 2 mg/mL; acarbose 5 µg/mL positive control; in words
Protocol: α-amylase inhibition was determined as previously reported ([Hu et al., 2013]). Briefly, 200 µL of 20 mM sodium phosphate buffer (pH 7.0 with 6 mM NaCl), including α-amylase (10 U/mL) and 200 µL of sample (2 mg/mL), was incubated at 37 °C for 45 min. A potato starch solution (400 µL; 0.5%) was added to each sample and incubated at 37 °C in a shaking water bath (100 rpm) for 10 min. The enzymatic reaction was stopped with dinitrosalicylic acid color reagent. Screw cape tubes were transferred to a water bath at 100 °C for 10 min, then cooled to room temperature. Finally, samples were diluted with 3 mL of deionized water (3 mL). Absorbance of diluted reaction mixtures was measured spectrophotometrically at 540 nm (Spectro UV–VIS Auto, UV2602, Labomed, USA). Test and control samples were compared and expressed as percentage inhibition of α-amylase. Acarbose (5 µg/mL) was used as a positive control, and samples in buffer without test compounds or extracts were included as negative controls.

[5] = EcN in nutrient broth supplemented at 2 mg/mL, 37 °C, n = 3

Sequence of angiotensin-converting enzyme (ACE) (P12821 30-1306, species assumed): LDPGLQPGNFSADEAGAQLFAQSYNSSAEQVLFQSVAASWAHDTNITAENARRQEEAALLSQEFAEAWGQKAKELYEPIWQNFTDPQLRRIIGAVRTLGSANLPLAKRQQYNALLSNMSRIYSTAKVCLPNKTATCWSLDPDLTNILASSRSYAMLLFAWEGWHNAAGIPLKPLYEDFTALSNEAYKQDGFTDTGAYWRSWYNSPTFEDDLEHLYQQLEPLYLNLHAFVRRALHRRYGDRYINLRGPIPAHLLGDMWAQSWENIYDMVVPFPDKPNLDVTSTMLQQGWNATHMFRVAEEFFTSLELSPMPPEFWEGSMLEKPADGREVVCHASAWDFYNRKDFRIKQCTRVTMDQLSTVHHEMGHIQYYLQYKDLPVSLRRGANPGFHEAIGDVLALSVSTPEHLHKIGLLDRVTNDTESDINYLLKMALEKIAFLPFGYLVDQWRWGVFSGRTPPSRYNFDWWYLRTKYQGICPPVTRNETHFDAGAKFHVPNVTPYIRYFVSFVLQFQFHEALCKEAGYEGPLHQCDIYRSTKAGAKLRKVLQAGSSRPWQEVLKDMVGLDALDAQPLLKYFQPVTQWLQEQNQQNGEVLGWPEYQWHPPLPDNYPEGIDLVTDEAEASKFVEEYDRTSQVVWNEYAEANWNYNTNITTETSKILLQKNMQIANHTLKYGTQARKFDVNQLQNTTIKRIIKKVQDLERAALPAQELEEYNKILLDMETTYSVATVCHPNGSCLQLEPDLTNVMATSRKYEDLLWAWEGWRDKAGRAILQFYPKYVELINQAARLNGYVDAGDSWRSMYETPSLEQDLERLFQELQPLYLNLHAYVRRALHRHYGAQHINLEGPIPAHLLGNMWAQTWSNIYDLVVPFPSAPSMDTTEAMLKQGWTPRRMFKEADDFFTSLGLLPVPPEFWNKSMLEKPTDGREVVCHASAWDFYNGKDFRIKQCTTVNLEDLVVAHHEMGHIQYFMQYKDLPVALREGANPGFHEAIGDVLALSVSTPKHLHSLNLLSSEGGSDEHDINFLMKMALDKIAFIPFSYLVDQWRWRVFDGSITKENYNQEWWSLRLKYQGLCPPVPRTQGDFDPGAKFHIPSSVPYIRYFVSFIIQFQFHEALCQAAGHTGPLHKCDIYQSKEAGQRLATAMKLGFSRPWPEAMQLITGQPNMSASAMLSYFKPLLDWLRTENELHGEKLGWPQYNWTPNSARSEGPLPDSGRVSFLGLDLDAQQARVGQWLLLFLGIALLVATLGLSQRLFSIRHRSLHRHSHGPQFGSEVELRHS
Sequence of pepsin (P0DJD8 63-388): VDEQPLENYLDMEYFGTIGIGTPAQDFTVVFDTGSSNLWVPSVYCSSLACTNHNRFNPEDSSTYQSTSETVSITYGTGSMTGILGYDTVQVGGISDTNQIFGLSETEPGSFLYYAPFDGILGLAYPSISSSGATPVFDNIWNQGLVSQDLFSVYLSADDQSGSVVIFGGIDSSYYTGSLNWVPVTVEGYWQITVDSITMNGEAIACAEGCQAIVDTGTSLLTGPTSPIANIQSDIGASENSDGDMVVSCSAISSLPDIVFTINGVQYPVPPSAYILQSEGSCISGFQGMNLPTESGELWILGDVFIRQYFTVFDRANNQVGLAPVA

## CC(=O)c1c(C)cc2cccc(O)c2c1O [Compound 1, Nepodin]
[1]
  Prebiotic index (PI): 0.94 ± 0.24
[2]; [5]
  Lag (min): 240 ^a min
[3]
  ACE inhibitory activity: the highest compared with other isolated compounds

## Cc1cc(O)c2c(c1)C(=O)c1cccc(O)c1C2=O [Compound 2, chrysophanol]
[2]
  Effect on lag phase of EcN compared with control: significantly (P < 0.05) decreased lag phase
[2]; [5]
  Lag (min): 180 ^b min

## COc1cc(O)c2c(c1)C(=O)c1cc(C)cc(O)c1C2=O [Compound 3, physcion]
[2]
  Effect on lag phase of EcN compared with control: significantly (P < 0.05) decreased lag phase
[2]; [5]
  Lag (min): 180 ^b min

## CC[C@H](CC[C@@H](C)[C@H]1CC[C@H]2[C@@H]3CC=C4C[C@@H](O)CC[C@]4(C)[C@H]3CC[C@]12C)C(C)C [Compound 4, β-sitosterol]
[1]
  Prebiotic index (PI): 3.05 ± 0.47
[2]
  Effect on lag phase of EcN compared with control: significantly (P < 0.05) decreased lag phase
[2]; [5]
  Lag (min): 60 ^c min
  Td (min), doubling time: 39.71 min
[4]
  Prebiotic activity score (Pscore): about 3.02 ± 0.48

## Cc1cc(O)c2c(c1)C(=O)c1cc(O)cc(O)c1C2=O [Compound 5, emodin]
[1]
  Prebiotic index (PI): 1.14 ± 0.20
[2]; [5]
  Lag (min): 240 ^a min
[3]
  ACE inhibitory activity: the lowest inhibitory activity of ACE compared with other compounds

## CC[C@@H](CCC(C)C1CCC2C3CC=C4C[C@@H](O[C@@H]5O[C@H](CO)[C@@H](O)[C@H](O)[C@H]5O)CC[C@]4(C)C3CC[C@]12C)C(C)C (stereo partly drawn) [Compound 6, β-sitosterol 3-O-β-D-glucoside]
[2]
  Effect on lag phase of EcN compared with control: significantly (P < 0.05) decreased lag phase
[2]; [5]
  Lag (min): 180 ^b min

## CC(=O)c1c(C)cc2cccc(O[C@@H]3O[C@H](CO)[C@@H](O)[C@H](O)[C@H]3O)c2c1O [Compound 7, 6-methyl-7-acetyl-1,8-dihydroxy naphthalene-1-O-β-D-glucoside]
[2]
  Effect on lag phase of EcN compared with control: significantly (P < 0.05) decreased lag phase
[2]; [5]
  Lag (min): 180 ^b min

## CCO[C@@H]1O[C@H](CO)[C@@H](O)[C@H](O)[C@H]1O [Compound 8, ethyl β-D-glucopyranoside]
[2]
  Effect on lag phase of EcN compared with control: significantly (P < 0.05) decreased lag phase
[2]; [5]
  Lag (min): 180 ^b min

## CC(C)CC(=O)N[C@H](C(=O)N[C@H](C(=O)N[C@@H](CC(C)C)[C@@H](O)CC(=O)N[C@@H](C)C(=O)N[C@@H](CC(C)C)[C@@H](O)CC(=O)O)C(C)C)C(C)C [Pepstatin, Pepstatin A] (Isovaleryl-VV[Sta]A[Sta]-OH)
pepsin
  Inhibition of pepsin (protease) activity: inhibitory activity greater than for any extracts or isolated compounds

## C[C@H]1O[C@H](O[C@H]2[C@H](O)[C@@H](O)[C@@H](O[C@H]3[C@H](O)[C@@H](O)C(O)O[C@@H]3CO)O[C@@H]2CO)[C@H](O)[C@@H](O)[C@@H]1N[C@H]1C=C(CO)[C@@H](O)[C@H](O)[C@H]1O (some centres unmarked) [acarbose, Acarbose]
α-amylase
  Inhibition of α-amylase activity: inhibition was greater than for either extracts
